Results as given in ChEMBL document CHEMBL1201862, “PubChem BioAssay data set” (2004).
Active and inactive are the calls of the source.

Assays:
[1] = target: DNA dC->dU-editing enzyme APOBEC-3A (Homo sapiens, UniProt P31941); assay: APOBEC3A DNA deaminase inhibitors, dose response, biochemical (AID 504722); assay type: functional
[2] = target: DNA dC->dU-editing enzyme APOBEC-3G (Homo sapiens, UniProt Q9HC16); assay: Dose Response confirmation of small molecule APOBEC3G DNA Deaminase Inhibitors via a fluorescence-based single-stranded DNA deaminase assay. [Related pubchem assays (depositor defined):AID493012, AID493028]; assay type: functional
Chain of DNA dC->dU-editing enzyme APOBEC-3G (Q9HC16 whole entry): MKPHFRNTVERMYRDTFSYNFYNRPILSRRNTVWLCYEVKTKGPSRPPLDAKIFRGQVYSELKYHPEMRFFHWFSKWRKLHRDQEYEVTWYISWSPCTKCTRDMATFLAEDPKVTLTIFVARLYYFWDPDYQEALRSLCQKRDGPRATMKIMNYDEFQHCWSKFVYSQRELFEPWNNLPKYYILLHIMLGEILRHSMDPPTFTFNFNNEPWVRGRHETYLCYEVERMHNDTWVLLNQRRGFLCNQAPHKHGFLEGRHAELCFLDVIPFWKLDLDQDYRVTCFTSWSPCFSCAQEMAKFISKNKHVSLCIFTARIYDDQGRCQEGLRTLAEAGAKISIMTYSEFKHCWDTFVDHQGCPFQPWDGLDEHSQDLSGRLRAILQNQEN

Leucine aminopeptidase = target: T1, Leucine aminopeptidase (Plasmodium falciparum 3D7, UniProt Q8IL11); assay: P. falciparum M17LAP inhibitors, primary screen, biochemical, fluorogenic H-Leu-NHMec substrate, 1536-well (AID 1619); assay type: functional
T1 sequence (Q8IL11 whole entry): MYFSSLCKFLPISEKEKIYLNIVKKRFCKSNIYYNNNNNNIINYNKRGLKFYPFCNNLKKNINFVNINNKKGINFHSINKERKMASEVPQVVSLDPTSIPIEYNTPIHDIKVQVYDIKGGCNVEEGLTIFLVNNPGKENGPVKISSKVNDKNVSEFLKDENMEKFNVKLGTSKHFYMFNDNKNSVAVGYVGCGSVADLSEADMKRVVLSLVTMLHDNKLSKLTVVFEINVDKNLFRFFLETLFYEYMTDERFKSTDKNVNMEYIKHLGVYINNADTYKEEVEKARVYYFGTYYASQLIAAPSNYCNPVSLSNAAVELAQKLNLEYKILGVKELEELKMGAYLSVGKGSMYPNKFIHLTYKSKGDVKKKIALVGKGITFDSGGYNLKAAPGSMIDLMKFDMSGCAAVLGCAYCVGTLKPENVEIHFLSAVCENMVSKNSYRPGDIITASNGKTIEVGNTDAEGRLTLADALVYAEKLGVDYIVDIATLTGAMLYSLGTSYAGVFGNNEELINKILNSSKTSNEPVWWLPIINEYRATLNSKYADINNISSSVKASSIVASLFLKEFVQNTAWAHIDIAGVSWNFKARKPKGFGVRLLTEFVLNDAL

[3] = target: Alkaline phosphatase, placental type (Homo sapiens, UniProt P05187); assay: PLAP enzyme inhibitors, confirmation, biochemical, luminescence (AID 1512); assay type: functional
Chain of Alkaline phosphatase, placental type (P05187 whole entry): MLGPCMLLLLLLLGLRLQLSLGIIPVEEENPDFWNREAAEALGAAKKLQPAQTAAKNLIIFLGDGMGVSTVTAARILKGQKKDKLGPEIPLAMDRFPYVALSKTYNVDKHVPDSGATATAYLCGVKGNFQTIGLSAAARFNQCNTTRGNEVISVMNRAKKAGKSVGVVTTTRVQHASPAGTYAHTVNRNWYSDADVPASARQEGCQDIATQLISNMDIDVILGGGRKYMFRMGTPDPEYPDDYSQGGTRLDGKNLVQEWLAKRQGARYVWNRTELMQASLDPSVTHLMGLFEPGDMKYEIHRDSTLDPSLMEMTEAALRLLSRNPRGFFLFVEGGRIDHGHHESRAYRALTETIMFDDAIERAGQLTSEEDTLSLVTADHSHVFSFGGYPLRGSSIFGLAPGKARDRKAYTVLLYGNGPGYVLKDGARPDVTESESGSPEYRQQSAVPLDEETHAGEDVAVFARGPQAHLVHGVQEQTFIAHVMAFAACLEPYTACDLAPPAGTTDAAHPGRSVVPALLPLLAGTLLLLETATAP

Large T antigen = Large T antigen (Simian virus 40, UniProt P03070); assay type: functional, Betapolyomavirus macacae;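 also: Confirmatory-stage PubChem screen for compounds that inhibit SV40 T antigen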
Chain of Large T antigen (P03070 whole entry): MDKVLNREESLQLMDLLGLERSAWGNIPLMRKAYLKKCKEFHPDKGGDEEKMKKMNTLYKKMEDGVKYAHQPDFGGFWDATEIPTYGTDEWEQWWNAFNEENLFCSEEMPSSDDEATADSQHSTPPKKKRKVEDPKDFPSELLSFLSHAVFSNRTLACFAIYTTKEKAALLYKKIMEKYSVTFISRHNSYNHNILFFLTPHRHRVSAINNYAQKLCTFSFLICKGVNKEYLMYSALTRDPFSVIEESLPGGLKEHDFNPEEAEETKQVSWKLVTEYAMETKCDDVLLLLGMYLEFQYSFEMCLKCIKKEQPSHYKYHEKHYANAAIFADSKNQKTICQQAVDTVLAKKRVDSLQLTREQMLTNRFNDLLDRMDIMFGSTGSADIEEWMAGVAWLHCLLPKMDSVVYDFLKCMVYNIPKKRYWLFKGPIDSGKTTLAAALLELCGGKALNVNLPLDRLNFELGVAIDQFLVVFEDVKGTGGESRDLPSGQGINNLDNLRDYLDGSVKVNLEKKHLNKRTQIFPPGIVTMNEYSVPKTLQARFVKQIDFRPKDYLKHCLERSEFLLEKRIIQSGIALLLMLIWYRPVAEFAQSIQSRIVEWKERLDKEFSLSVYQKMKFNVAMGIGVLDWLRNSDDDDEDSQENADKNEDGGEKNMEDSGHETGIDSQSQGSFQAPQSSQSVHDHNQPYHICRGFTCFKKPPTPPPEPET

[4] = target: T2, Alkaline phosphatase, tissue-nonspecific isozyme (Homo sapiens, UniProt P05186); assay: human TNAP enzyme inhibitors, SAR follow-up, biochemical, luminescent, dose response (AID 1056)
T2 sequence (P05186 whole entry): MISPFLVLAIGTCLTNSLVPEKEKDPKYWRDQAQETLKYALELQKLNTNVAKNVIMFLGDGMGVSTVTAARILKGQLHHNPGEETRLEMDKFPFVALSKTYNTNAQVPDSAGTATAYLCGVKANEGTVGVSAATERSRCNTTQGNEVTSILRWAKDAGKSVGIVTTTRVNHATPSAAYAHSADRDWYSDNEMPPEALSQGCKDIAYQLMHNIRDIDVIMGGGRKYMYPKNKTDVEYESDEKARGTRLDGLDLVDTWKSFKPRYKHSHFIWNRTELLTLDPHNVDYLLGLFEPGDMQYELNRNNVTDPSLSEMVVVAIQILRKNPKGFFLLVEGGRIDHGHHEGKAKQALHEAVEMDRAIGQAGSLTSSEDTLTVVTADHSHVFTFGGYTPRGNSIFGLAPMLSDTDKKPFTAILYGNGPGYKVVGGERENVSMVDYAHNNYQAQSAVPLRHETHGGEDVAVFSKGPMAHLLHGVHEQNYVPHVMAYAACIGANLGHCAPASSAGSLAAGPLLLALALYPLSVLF

HEK293 [5] = assay: cells; assay type: functional, cell-based; conditions: Homo sapiens
HEK293 [6] = assay: cells; assay type: functional, cell-based; conditions: Homo sapiens; remark: listed apart in the source
HEK293 [7] = assay: cells; conditions: Homo sapiens
HEK293 [8] = assay: NOD2 signaling inhibitors in MDP-stimulated cells, cell-based, uHTS, luminescence (AID 2001); assay type: functional; conditions: Homo sapiens
HEK293 [9] = assay: cells; assay type: functional, cell-based; conditions: Homo sapiens; remark: listed apart in the source
[10] = Shn3 3'UTR reporter inhibitors, dose response, cell-based, Clone20 osteoblasts, firefly luciferase, cherry-picked (AID 624132); assay type: functional;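 also: firefly luciferase luminescence from reporter carrying the Shn3 3'UTR in osteoblasts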
HEK293 [11] = assay: NOD1 signaling inhibitors, primary screen, cell-based, luminescence, uHTS (AID 1578); assay type: functional; conditions: Homo sapiens
[12] = target: Nucleotide-binding oligomerization domain-containing protein 2 (Homo sapiens, UniProt Q9HC29); assay: NOD2 signaling inhibitors, cell-based, luminescence, uHTS, HEK293 (AID 1566); assay type: functional
Chain of Nucleotide-binding oligomerization domain-containing protein 2 (Q9HC29 whole entry, the tested form may be a part): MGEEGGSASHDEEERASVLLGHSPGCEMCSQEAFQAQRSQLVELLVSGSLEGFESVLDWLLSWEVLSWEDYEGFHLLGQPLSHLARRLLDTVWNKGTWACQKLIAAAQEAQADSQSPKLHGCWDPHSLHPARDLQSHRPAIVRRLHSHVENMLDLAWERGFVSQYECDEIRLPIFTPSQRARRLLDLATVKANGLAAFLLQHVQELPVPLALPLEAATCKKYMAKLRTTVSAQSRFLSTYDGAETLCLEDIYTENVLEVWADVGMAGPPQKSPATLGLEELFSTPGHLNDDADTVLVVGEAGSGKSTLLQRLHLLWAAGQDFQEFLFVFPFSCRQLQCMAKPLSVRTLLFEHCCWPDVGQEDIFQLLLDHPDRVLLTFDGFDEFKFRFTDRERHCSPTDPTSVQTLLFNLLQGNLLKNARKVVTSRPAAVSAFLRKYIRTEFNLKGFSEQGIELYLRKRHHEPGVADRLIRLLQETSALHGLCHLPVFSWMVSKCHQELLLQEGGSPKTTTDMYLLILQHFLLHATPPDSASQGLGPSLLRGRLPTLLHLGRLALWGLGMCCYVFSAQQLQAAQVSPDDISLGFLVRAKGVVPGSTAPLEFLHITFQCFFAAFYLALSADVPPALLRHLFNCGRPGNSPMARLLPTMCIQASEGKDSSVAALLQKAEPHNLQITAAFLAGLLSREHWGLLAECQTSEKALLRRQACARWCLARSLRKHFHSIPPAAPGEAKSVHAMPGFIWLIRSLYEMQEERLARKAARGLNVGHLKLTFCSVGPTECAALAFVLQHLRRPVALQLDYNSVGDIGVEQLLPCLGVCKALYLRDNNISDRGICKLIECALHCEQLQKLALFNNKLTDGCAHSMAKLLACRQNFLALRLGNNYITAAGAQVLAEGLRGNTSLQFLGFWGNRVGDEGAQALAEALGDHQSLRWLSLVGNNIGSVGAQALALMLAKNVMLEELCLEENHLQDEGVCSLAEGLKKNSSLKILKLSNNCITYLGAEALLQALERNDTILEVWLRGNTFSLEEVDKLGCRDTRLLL

[13] = HepG2 cell cytotoxicity, dose response, cytotoxicity control for Shn3 inhibitor project, CellTiter-Glo, cherry-picked (AID 624134); assay type: functional, cell-based
Tumor necrosis factor = Tumor necrosis factor (Homo sapiens, UniProt P01375); assay: TNFa-triggered NF-kB activation inhibitors, SAR follow-up, cell-based, revised (AID 2337); assay type: functional
Chain of Tumor necrosis factor (P01375 whole entry): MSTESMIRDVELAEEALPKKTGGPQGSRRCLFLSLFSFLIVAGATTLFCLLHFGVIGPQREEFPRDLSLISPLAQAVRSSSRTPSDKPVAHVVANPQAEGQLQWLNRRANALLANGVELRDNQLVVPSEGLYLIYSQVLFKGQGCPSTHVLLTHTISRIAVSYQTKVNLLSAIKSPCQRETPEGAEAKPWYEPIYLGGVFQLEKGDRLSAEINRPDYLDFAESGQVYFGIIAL

[14] = control 3'UTR Renilla luciferase suppression, dose response, counter-screen for Shn3 inhibitor project, cell-based, Clone20-Shn3RL, cherry-picked (AID 624133); assay type: functional
[15] = target: T3, Nucleotide-binding oligomerization domain-containing protein 1 (Homo sapiens, UniProt Q9Y239); assay: NOD1 signaling inhibitors, SAR follow-up, revised (AID 2333); assay type: functional
T3 sequence (Q9Y239 whole entry): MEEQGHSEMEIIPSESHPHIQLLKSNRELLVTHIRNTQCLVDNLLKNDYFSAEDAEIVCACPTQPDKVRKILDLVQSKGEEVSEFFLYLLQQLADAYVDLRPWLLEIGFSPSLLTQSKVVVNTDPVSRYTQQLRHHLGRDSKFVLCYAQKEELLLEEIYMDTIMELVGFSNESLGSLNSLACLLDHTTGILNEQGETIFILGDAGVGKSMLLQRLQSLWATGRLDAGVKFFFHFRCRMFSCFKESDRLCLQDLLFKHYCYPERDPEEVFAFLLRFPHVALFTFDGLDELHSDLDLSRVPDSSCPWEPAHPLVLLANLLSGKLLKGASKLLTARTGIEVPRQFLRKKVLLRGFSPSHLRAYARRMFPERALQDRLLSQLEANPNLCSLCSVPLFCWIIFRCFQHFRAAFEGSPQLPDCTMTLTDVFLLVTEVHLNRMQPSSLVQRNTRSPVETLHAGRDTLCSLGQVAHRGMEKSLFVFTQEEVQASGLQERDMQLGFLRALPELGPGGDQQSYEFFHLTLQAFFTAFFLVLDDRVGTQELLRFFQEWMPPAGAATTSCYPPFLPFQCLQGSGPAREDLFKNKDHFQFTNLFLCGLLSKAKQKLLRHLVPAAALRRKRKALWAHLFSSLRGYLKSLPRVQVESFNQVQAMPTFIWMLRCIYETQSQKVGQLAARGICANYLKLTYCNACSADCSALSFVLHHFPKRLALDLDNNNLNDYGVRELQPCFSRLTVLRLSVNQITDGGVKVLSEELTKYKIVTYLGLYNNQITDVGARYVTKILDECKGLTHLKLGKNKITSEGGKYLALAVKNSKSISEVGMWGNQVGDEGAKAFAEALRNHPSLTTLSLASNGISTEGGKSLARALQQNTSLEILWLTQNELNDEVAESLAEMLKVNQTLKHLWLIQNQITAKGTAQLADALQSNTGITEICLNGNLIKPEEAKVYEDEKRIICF

[16] = THP-1 cell cytotoxicity, dose response, cytotoxicity control for non-replicating M. tuberculosis project (AID 489025); assay type: functional
cells = assay type: functional
[17] = cytotoxicity in HEK-293T cells, dose response, cytotoxicity control for BCR NF-kB inhibitor project, luminescence, B-cell screen hits (AID 489021); assay type: functional, cell-based;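 also: HEK-293T cells carrying an NF-kB luciferase reporter; cells exposed to compound for about 14 hours before viability readout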
Hexokinase HKDC1 = target: T4, Hexokinase HKDC1 (Homo sapiens, UniProt Q2TB90); assay: HKDC1 hexokinase inhibitors, dose response, biochemical, W721R variant (AID 504729); assay type: functional
T4 sequence (Q2TB90 whole entry): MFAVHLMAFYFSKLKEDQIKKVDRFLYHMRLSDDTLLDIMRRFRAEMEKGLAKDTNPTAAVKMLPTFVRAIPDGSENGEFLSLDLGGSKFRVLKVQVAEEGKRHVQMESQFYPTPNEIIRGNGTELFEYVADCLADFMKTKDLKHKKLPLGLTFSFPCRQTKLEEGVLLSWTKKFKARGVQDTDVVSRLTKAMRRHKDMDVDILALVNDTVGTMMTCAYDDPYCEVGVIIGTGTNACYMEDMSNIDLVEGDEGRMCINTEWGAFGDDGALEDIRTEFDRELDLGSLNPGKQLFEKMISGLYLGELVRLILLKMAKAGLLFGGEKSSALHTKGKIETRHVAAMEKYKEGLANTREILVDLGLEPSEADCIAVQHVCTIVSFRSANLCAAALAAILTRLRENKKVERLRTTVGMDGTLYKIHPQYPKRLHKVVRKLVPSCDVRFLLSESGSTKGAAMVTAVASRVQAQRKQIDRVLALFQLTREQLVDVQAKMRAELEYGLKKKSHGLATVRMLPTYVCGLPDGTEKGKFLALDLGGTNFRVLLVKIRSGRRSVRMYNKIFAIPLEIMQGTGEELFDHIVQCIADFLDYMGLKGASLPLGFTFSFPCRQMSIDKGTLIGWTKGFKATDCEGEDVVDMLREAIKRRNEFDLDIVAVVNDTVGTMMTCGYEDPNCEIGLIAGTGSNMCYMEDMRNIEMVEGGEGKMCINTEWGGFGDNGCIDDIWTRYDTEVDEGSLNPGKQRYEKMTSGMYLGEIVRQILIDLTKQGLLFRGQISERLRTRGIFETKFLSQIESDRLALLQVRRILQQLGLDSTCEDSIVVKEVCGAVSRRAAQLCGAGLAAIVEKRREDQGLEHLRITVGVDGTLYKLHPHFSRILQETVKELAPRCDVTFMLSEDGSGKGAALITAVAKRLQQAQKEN

[18] = target: T5, Bifunctional protein GlmU (Mycobacterium tuberculosis, UniProt P9WMN3); assay: Inhibitors of Mycobacterial Glucosamine-1-phosphate acetyl transferase (GlmU). Secondary screen.; design: species or system Mycobacterium tuberculosis H37Rv
T5 sequence (P9WMN3 whole entry): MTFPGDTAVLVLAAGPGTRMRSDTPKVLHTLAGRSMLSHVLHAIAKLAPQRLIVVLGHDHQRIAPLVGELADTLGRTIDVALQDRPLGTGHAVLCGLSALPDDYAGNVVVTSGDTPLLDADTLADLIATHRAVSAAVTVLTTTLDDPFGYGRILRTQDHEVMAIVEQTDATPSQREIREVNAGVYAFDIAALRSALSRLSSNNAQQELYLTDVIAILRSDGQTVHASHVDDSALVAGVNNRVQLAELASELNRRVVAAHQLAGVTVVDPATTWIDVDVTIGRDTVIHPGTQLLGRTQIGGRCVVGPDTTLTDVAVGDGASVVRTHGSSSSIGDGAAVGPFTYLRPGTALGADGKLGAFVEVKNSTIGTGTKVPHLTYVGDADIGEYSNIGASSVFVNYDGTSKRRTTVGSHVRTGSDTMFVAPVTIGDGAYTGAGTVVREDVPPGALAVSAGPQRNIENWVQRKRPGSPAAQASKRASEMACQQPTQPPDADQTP

Estrogen receptor beta [19] = target: T6, Estrogen receptor beta (Homo sapiens, UniProt Q92731);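 also: recombinant ER-beta bound to coactivator SRC1 peptide in presence of estradiol agonist; inhibitors block coactivator peptide binding and lower the FRET signal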
T6 sequence (Q92731 whole entry): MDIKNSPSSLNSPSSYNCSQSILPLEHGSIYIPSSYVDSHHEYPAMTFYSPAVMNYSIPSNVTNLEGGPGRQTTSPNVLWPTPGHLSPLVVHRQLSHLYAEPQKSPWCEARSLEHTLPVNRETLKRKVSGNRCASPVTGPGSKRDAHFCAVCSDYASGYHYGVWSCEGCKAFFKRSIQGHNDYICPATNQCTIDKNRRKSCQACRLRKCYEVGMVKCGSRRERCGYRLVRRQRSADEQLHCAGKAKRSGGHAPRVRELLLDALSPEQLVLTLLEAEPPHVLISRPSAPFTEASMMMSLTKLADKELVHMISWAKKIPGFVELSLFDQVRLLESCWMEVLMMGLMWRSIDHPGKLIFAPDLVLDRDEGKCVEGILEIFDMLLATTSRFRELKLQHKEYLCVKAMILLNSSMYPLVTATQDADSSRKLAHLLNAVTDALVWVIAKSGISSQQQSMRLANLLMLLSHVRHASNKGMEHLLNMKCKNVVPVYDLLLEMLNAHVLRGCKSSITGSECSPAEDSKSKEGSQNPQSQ

Estrogen receptor beta [20] = target: T6, Estrogen receptor beta; assay: ERβ–SRC-3 coactivator interaction inhibitors, confirmation, orthogonal assay, biochemical, ELISA, streptavidin-HRP readout (AID 1060)
Bcl-2-like protein 10 = target: T7, Bcl-2-like protein 10 (Homo sapiens, UniProt Q9HD36); assay: displacers of TR3 peptide from Bcl-B, primary screen, selectivity assay for Bfl-1 inhibitor project, biochemical, fluorescence polarization, FITC-TR3 peptide (AID 748);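 also: fluorescence polarization from a fluorescein-labelled TR3 peptide binding purified Bcl-B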
T7 sequence (Q9HD36 whole entry): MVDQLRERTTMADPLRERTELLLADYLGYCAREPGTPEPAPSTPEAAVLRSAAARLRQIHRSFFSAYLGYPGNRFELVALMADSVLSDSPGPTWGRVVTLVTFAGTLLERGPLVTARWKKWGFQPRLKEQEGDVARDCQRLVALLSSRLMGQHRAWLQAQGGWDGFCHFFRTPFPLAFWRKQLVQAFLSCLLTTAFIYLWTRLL

Chain of DNA dC->dU-editing enzyme APOBEC-3A (P31941 whole entry): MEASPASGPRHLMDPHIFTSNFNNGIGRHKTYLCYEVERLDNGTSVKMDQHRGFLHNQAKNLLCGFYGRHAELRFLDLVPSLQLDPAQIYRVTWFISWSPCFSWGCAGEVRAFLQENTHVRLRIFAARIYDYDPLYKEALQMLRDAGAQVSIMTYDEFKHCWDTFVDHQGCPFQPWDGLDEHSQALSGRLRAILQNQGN

COc1ccc(N2C(=O)C[S+]([O-])C(c3ccccc3)C2=O)cc1 (stereo unspecified)
IC50 [1]: > 100 µM (inactive)
IC50 [2]: 7.26 µM (active)

CCn1c(SCC(=O)c2ccc(O)c(O)c2)nnc1-c1ccc(C)cc1
IC50 (Leucine aminopeptidase): 17.9 µM (active)
IC50 [3]: 11.8 µM (active)
IC50 (Large T antigen): 10.4 µM (active)
IC50 [4]: > 100 µM (inactive)

O=C(c1ccc(S(=O)(=O)c2ccccc2Cl)c([N+](=O)[O-])c1)N1CCN(Cc2ccccc2)CC1
IC50 (HEK293 [5]): 4.59 µM (active)
IC50 (HEK293 [6]): 17.6 µM (active)
IC50 (HEK293 [7]): 15.3 µM (active)
IC50 (HEK293 [8]): 5.54 µM (active)
IC50 (HEK293 [9]): > 20 µM (inactive)
AC50 [10]: 5.77 µM (active)
EC50 (HEK293 [11]): 12.9 µM (active)
EC50 [12]: 11.8 µM (active)
AC50 [13]: 50 µM (active)
IC50 (Tumor necrosis factor): 6.58 µM (active)
AC50 [14]: 3.48 µM (active)
IC50 [15]: 3.65 µM (active)

CCCCCCn1c(=O)c(C(=O)Nc2nnc(C)s2)c(O)c2ccccc21
CC50 [16]: > 40 µM (active)
IC50 (cells): 22.6 µM (active)

Cc1ccc(C(=O)OCC(=O)N(CC(C)C)c2c(N)n(Cc3ccccc3)c(=O)[nH]c2=O)o1
IC50 [17]: > 80 µM (inactive)

Cc1nc2c(O)c3c(c(O)c2nc1C)C1C=CC3CC1
IC50 (Hexokinase HKDC1): 2.23 µM (active)

Cc1ccc(C)n1-c1sccc1C(=O)O
IC50 [18]: 46.9 µM (active)
IC50 (Estrogen receptor beta [19]): 4.48 µM (active)
IC50 (Estrogen receptor beta [20]): 6.1 µM (not active)
IC50 (Bcl-2-like protein 10): 0.783 µM (active)
